US10245271B2, “Treatment of impaired cognitive flexibility with TrkB receptor antagonists” (Florida State University Research Foundation, Inc., priority 2015, dated 2019)
Entries after “also recorded” stand apart in the source; their conditions may differ.

Tests used:
[1] = system: prenatally cocaine-exposed mice; test: Olfactory (odor) reversal learning, go no-go olfactometer paradigm; format: in vivo, mouse (Swiss Webster)
Description: Swiss Webster mice were housed in a temperature and humidity controlled environment on a 12 hr light/dark cycle with food and water available ad libitum were bred to obtain timed pregnancies.
Singly housed dams received twice daily (7 AM and 7 PM) subcutaneous injections of cocaine (20 mg/kg/injection: total daily dose=40 mg/kg/day) or saline (same volume and time of administration as the cocaine injection) from the 8th day of pregnancy until the day of birth. The period of cocaine exposure corresponds to mid-first trimester of human pregnancies.
(§1) Olfactometry: Reversal learning was assayed in an automated olfactometer based on odor learning and detection using water as reward (41, 42). Briefly, odorants were presented via an 8-channel liquid dilution computerized olfactometer (Knosys LD8-1, Tampa, Fla.) so that odorant threshold determinations were automated and stimulus concentration, timing of onset and offset, and stimulus control of behavior could be controlled reliably. We modified our Knosys system to provide additional mechanical dampening of the solenoid pinch valves to permit incorporation of materials for mounting the machine in-line with sterilization of the olfactometer.
The Knosys olfactometer employs operant conditioning in the form of both positive and negative reinforcements. Positive reinforcement is used when pairing an odorant with water reward (S+). A 10-second time out or negative reinforcement occurs as a result of a mouse responding to a negative cue or diluent (S−). Mice were therefore trained in a classical “go no-go” operant conditioning paradigm to recognize an odorant.
Operant training: Mice were water-deprived to 85% of their baseline bodyweight to motivate them for a water reward. Operant training was performed using a step-wise battery of tasks that began with reward reinforcement for learning to lick a water delivery tube and snout insertion into the odor sampling port. Mice advanced to the next stage after 30 reinforcements. Next, mice were reinforced for lick decisions paired with a positively entrained odor (S+). They were required to nose poke for an extended period of time to sample an odor prior to receiving water reinforcement.
During the go no-go operant training mice inserted their snout into the odor sampling port to initiate a trial and waited until the odor stimulus was presented. […] The mice were rewarded for lick decisions paired with a positively entrained odor (S+) and also for correct rejections paired with a negatively entrained odor (S−). This establishes the “go no-go” reward criteria. The percentage of correct responses per trial was determined by the formula: % correct responses=[(HITs+Correct Rejections)/20]×100, where a HIT is defined as a criterion response in the presence of S+, and a Correct Rejection (CR) is a failure to make a criterion response in the presence of […] 20 represents the number of trials per block.
Odor Reversal Learning: Once mice achieved criteria performance on the two-odor discrimination testing for a week, mice underwent an odor-reversal learning paradigm. Here mice were introduced to the switch (reversal) of the S+ for the S− stimulus where the previously rewarded odor stimulus now lacked the water reward and the previously unrewarded odor stimulus was now paired with the water reward.
The scent stimuli used were 5% Ethyl Acetate (EA) and 1% Acetophenone (AP).
Upon successful completion of the training phase and odor discrimination phase a subset of mice were randomly assigned to the ANA-12 injection group. ANA-12 (Sigma Aldrich, St. Louis, Mo.; SML0209) was administered twice daily [0.5 mg/kg; 1.0 mg/kg/day intraperitoneal (i.p.)] for 13 consecutive days. ANA-12 was dissolved in 100% DMSO (stock), and diluted further such that the final concentration of DMSO administered to the mice was 1%. On days 8-10 of the injection period, the mice were water deprived (to 85% of pre-deprivation weight). […]

TrkC = TrkC (Homo sapiens, UniProt Q16288); conditions: cited from earlier work
TrkC, sequence (Q16288 32-839, species assumed): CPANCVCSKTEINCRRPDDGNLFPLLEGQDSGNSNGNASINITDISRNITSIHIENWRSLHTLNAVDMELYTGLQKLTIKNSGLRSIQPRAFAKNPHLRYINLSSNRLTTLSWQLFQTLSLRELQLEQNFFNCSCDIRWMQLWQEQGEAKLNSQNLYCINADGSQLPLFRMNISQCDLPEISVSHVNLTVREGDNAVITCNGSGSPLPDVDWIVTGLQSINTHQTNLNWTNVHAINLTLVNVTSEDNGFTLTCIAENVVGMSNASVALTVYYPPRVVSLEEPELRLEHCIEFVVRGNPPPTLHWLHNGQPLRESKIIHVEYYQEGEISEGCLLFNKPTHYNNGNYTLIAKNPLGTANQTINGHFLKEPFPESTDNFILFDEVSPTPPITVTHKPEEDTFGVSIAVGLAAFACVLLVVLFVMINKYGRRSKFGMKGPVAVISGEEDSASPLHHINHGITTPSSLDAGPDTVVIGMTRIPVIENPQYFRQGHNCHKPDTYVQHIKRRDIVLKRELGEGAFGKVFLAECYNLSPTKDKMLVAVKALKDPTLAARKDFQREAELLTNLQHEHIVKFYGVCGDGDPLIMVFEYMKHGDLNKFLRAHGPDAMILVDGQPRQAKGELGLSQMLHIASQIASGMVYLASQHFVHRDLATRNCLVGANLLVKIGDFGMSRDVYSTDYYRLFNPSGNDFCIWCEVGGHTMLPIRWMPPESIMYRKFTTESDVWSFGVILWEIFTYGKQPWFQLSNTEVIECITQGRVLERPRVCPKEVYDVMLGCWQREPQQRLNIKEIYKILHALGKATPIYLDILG

[2] = system: prenatally cocaine-exposed mice; test: Odor versus odor discrimination (two-odor discrimination testing); format: in vivo, mouse (Swiss Webster); conditions: ANA-12 i.p. twice a day, 1 mg/kg/day; data not shown
Description: as §1
During the go no-go operant training mice inserted their snout into the odor sampling port to initiate a trial and waited until the odor stimulus was presented. […] The mice were rewarded for lick decisions paired with a positively entrained odor (S+) and also for correct rejections paired with a negatively entrained odor (S−). This establishes the “go no-go” reward criteria. The percentage of correct responses per trial was determined by the formula: % correct responses=[(HITs+Correct Rejections)/20]×100, where a HIT is defined as a criterion response in the presence of S+, and a Correct Rejection (CR) is a failure to make a criterion response in the presence of […] 20 represents the number of trials per block. […]

TrkA = TrkA (Homo sapiens, UniProt P04629); conditions: cited from earlier work
TrkA, sequence (P04629 33-796, species assumed): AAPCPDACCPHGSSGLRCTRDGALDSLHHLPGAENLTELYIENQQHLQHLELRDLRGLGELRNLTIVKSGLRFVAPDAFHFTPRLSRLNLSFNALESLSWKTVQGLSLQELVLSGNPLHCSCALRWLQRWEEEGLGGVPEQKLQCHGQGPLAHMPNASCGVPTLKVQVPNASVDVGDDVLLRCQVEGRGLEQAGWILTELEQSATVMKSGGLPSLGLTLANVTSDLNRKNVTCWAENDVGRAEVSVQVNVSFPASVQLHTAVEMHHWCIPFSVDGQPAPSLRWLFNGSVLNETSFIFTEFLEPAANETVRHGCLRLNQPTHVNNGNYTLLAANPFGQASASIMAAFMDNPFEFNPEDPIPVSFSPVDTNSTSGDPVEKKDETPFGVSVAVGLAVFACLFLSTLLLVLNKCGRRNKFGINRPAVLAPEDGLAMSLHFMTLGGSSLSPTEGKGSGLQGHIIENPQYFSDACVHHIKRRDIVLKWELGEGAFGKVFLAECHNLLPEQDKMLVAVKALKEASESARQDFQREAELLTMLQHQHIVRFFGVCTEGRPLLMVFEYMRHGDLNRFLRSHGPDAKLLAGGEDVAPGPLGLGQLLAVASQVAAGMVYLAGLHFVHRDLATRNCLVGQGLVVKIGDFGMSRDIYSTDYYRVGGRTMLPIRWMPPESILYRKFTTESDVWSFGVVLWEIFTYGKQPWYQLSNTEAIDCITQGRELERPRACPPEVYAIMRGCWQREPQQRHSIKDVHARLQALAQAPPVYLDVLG

mice = mice dosed with ANA-12; Cazorla et al., J. Clin. Invest. 121(5), 1846-57 (2011); cited from earlier work

For `O=C(Nc1ccccc1C(=O)NC1CCCCNC1=O)c1cc2ccccc2s1` (stereo not shown) [ANA-12, N-[2-[[(Hexahydro-2-oxo-1H-azepin-3-yl)amino]carbonyl]phenyl]-benzo[b]thiophene-2-carboxamide], the “performance in the reversal paradigm” value ([1]; ANA-12 treated prenatally cocaine-exposed mice vs prenatally cocaine-exposed mice, i.p. 1 mg/kg/day, 13 days, 1 mg/kg/day) was “performed better; also recorded: significant improvement in performance”, the “cognitive flexibility of treated subjects” value ([1]; ANA-12 treatment, summary statement) was “a statistically significant number of subjects tested showed improved cognitive flexibility” and the “Number of trials to reach criteria (≥80%), Mean±SEM” value ([1]; Cocaine+ANA12 group, i.p. 1 mg/kg/day, 13 days) was 255.0±9.6. The “difference in number of trials to reach criteria vs saline-exposed mice” value ([1]; Mann-Whitney's U test, saline vs cocaine+ANA-12, p>0.05) was “no significant difference”, the “time course of reversal learning vs saline-exposed mice” value ([1]; Student's t-test, p>0.05) was “not significantly different” and the “median number of trials needed to reach criteria following reversal of the odors” value ([1]; cocaine+ANA-12 group) was 290. For the same compound, the “mean rank, Mann-Whitney's U test, number of trials to reach criteria” value ([1]; cocaine+ANA-12 group vs saline (U=3.5, p>0.05)) was 22.5, the “% correct responses in reversal learning, post-hoc Bonferroni comparison cocaine versus cocaine+ANA-12” value ([1]; day 2 (blocks 11-20), t=3.557, df=124, p<0.01, FIG. 2A) was “significant difference” and the “percentage of mice that reached criteria (at least 80% correct) over the two days” value ([1]; prenatally cocaine-exposed mice injected with ANA-12, FIG. 2B) was 57%. For the same compound, the “effect on TrkC functions” value (TrkC) was “without substantially altering”, the “correct hits in odor versus odor discrimination” value [2] was > 80% and the “effect on TrkA functions” value (TrkA) was “without substantially altering”. The “anxiety- and depression-related behaviors” value (mice) was “reduced anxiety- and depression-related behaviors”.
